# Results: PubChem BioAssay AID1745844 (Carcinogenic Potency Database (CPDB), 2022)
# Active and inactive are the calls of the source. How the calls were made is not given here.
# Tested on: rodent lifetime carcinogenesis bioassay, tumor incidence TD50
# Assay: chronic cancer bioassays in animals – CPDB, compiled studies (AID 1745844)
compound,measurement,setting,value
C=CC1CC=CCC1 (configuration not stated),TD50,"mouse, strain B6C3F1, females, by gavage, site: adrenal capsule, lesion: adenoma, NOS, dosed 103 weeks, study length 104 weeks",1050 mg/kg/day
same,TD50,"mouse, strain B6C3F1, females, by gavage, site: any site (literature study), lesion: several types, types named in the paper, dosed 103 weeks, study length 104 weeks",149 mg/kg/day
same,TD50,"mouse, strain B6C3F1, females, by gavage, site: liver, lesion: hepatocellular adenoma + hepatocellular carcinoma + neoplastic nodule, dosed 103 weeks, study length 104 weeks",1480 mg/kg/day
same,TD50,"mouse, strain B6C3F1, females, by gavage, site: lung, lesion: alveolar/bronchiolar adenoma + alveolar/bronchiolar carcinoma, dosed 103 weeks, study length 104 weeks",19000 mg/kg/day
same,TD50,"mouse, strain B6C3F1, females, by gavage, site: mesenteric lymph node + multiple organs + small intestine, lesion: malignant lymphoma, lymphocytic type, dosed 103 weeks, study length 104 weeks",839 mg/kg/day
same,TD50,"mouse, strain B6C3F1, females, by gavage, site: ovary, lesion: granulosa-cell carcinoma + granulosa-cell tumor + mixed tumor, benign, dosed 103 weeks, study length 104 weeks",94.4 mg/kg/day
same,TD50,"mouse, strain B6C3F1, females, by gavage, site: ovary, lesion: granulosa-cell carcinoma + granulosa-cell tumor, dosed 103 weeks, study length 104 weeks",309 mg/kg/day
same,TD50,"mouse, strain B6C3F1, females, by gavage, site: ovary, lesion: granulosa-cell tumor, dosed 103 weeks, study length 104 weeks",361 mg/kg/day
same,TD50,"mouse, strain B6C3F1, females, by gavage, site: ovary, lesion: mixed tumor, benign, dosed 103 weeks, study length 104 weeks",106 mg/kg/day
same,TD50,"mouse, strain B6C3F1, males, by gavage, site: any site (literature study), lesion: several types, types named in the paper, dosed 103 weeks, study length 104 weeks",307 mg/kg/day
same,TD50,"mouse, strain B6C3F1, males, by gavage, site: liver, lesion: hepatocellular adenoma + hepatocellular carcinoma + neoplastic nodule, dosed 103 weeks, study length 104 weeks",1270 mg/kg/day
same,TD50,"mouse, strain B6C3F1, males, by gavage, site: lung, lesion: alveolar/bronchiolar adenoma + alveolar/bronchiolar carcinoma, dosed 103 weeks, study length 104 weeks",490 mg/kg/day
same,TD50,"mouse, strain B6C3F1, males, by gavage, site: lung, lesion: alveolar/bronchiolar adenoma, dosed 103 weeks, study length 104 weeks",926 mg/kg/day
same,TD50,"mouse, strain B6C3F1, males, by gavage, site: mesenteric lymph node + multiple organs + spleen, lesion: malignant lymphoma, histiocytic type + malignant lymphoma, mixed type + malignant lymphoma, lymphocytic type, dosed 103 weeks, study length 104 weeks",623 mg/kg/day
same,TD50,"rat, strain Fischer 344, females, by gavage, site: any site (literature study), lesion: several types, types named in the paper, dosed 103 weeks, study length 104 weeks",305 mg/kg/day
same,TD50,"rat, strain Fischer 344, females, by gavage, site: clitoral gland, lesion: adenoma, NOS + squamous-cell carcinoma, dosed 103 weeks, study length 104 weeks",580 mg/kg/day
same,TD50,"rat, strain Fischer 344, females, by gavage, site: liver, lesion: hepatocellular adenoma + hepatocellular carcinoma + neoplastic nodule, dosed 103 weeks, study length 104 weeks",3.85e+06 mg/kg/day
same,TD50,"rat, strain Fischer 344, males, by gavage, site: adrenal gland, lesion: pheochromocytoma + pheochromocytoma, malignant, dosed 103 weeks, study length 104 weeks",159 mg/kg/day
same,TD50,"rat, strain Fischer 344, males, by gavage, site: any site (literature study), lesion: several types, types named in the paper, dosed 103 weeks, study length 104 weeks",119 mg/kg/day
same,TD50,"rat, strain Fischer 344, males, by gavage, site: liver, lesion: hepatocellular adenoma + hepatocellular carcinoma + neoplastic nodule, dosed 103 weeks, study length 104 weeks",132000 mg/kg/day
same,TD50,"rat, strain Fischer 344, males, by gavage, site: skin, lesion: squamous-cell carcinoma + squamous-cell papilloma, dosed 103 weeks, study length 104 weeks",769 mg/kg/day
same,TD50,"rat, strain Fischer 344, males, by gavage, site: skin, lesion: squamous-cell papilloma, dosed 103 weeks, study length 104 weeks",935 mg/kg/day
same,TD50,"rat, strain Fischer 344, males, by gavage, site: testis, lesion: interstitial-cell tumor, dosed 103 weeks, study length 104 weeks",62.3 mg/kg/day
CCN=c1cc2oc3cc(NCC)c(C)cc3c(-c3ccccc3C(=O)OCC)c-2cc1C,carcinogen call,"mouse, strain B6C3F1, females, in feed, site: any site (literature study), lesion: several types, types named in the paper, dosed 103 weeks, study length 105 weeks",negative (inactive)
same,TD50,"mouse, strain B6C3F1, males, in feed, site: thyroid gland, lesion: follicular-cell adenoma + follicular-cell carcinoma, dosed 103 weeks, study length 105 weeks",1210 mg/kg/day (inactive)
same,TD50,"rat, strain Fischer 344, females, in feed, site: adrenal medulla, lesion: pheochromocytoma, malignant + pheochromocytoma, benign, dosed 103 weeks, study length 105 weeks",47.1 mg/kg/day
same,TD50,"rat, strain Fischer 344, males, in feed, site: liver, lesion: hepatocellular adenoma + hepatocellular carcinoma + neoplastic nodule, dosed 103 weeks, study length 105 weeks",553 mg/kg/day
same,TD50,"rat, strain Fischer 344, males, in feed, site: skin, lesion: keratoacanthoma, dosed 103 weeks, study length 105 weeks",34.5 mg/kg/day
CCOP(=S)(OCC)Oc1ccc([N+](=O)[O-])cc1,carcinogen call,"mouse, strain B6C3F1, females, in feed, site: any site (literature study), lesion: several types, types named in the paper, dosed 80 weeks, study length 89 weeks",negative (inactive)
same,TD50,"mouse, strain B6C3F1, males, in feed, site: any site (literature study), lesion: several types, types named in the paper, dosed 67 weeks, study length 89 weeks",75.1 mg/kg/day (inactive)
same,TD50,"mouse, strain B6C3F1, males, in feed, site: liver, lesion: hepatocellular adenoma + hepatocellular carcinoma + neoplastic nodule, dosed 67 weeks, study length 89 weeks",111 mg/kg/day
same,TD50,"mouse, strain B6C3F1, males, in feed, site: lung, lesion: alveolar/bronchiolar adenoma + alveolar/bronchiolar carcinoma, dosed 67 weeks, study length 89 weeks",52.5 mg/kg/day
same,TD50,"rat, strain Osborne-Mendel, females, in feed, site: adrenal gland, lesion: cortical adenoma + cortical carcinoma, dosed 80 weeks, study length 109 weeks",3.93 mg/kg/day
same,TD50,"rat, strain Osborne-Mendel, females, in feed, site: adrenal gland, lesion: cortical adenoma, dosed 80 weeks, study length 109 weeks",5.31 mg/kg/day
same,carcinogen call,"rat, strain Osborne-Mendel, females, in feed, site: any site (literature study), lesion: several types, types named in the paper, dosed 80 weeks, study length 112 weeks",negative (inactive)
same,TD50,"rat, strain Osborne-Mendel, females, in feed, site: liver, lesion: hepatocellular adenoma + hepatocellular carcinoma + neoplastic nodule, dosed 80 weeks, study length 112 weeks",16.4 mg/kg/day
same,TD50,"rat, strain Osborne-Mendel, females, in feed, site: mammary gland, lesion: fibroadenoma, dosed 80 weeks, study length 109 weeks",2.07 mg/kg/day
same,TD50,"rat, strain Osborne-Mendel, males, in feed, site: adrenal gland, lesion: cortical adenoma + cortical carcinoma, dosed 80 weeks, study length 109 weeks",5.22 mg/kg/day
same,TD50,"rat, strain Osborne-Mendel, males, in feed, site: adrenal gland, lesion: cortical adenoma, dosed 80 weeks, study length 109 weeks",6.39 mg/kg/day
same,TD50,"rat, strain Osborne-Mendel, males, in feed, site: any site (literature study), lesion: several types, types named in the paper, dosed 80 weeks, study length 112 weeks",3.65 mg/kg/day (inactive)
same,TD50,"rat, strain Osborne-Mendel, males, in feed, site: liver, lesion: hepatocellular adenoma + hepatocellular carcinoma + neoplastic nodule, dosed 80 weeks, study length 112 weeks",17.7 mg/kg/day
same,TD50,"rat, strain Osborne-Mendel, males, in feed, site: pancreatic islets, lesion: islet-cell carcinoma, dosed 80 weeks, study length 109 weeks",19.2 mg/kg/day
CCN(CC)C(=O)c1cccc(C)c1,TD50,"mouse, strain Charles River CD1, females, in feed, site: liver, lesion: hepatocellular adenoma, dosed 78 weeks, study length 78 weeks",150000 mg/kg/day (inactive)
same,TD50,"mouse, strain Charles River CD1, females, in feed, site: liver, lesion: hepatocellular carcinoma, dosed 78 weeks, study length 78 weeks",87000 mg/kg/day (inactive)
same,TD50,"mouse, strain Charles River CD1, females, in feed, site: lung, lesion: alveolar/bronchiolar adenoma, dosed 78 weeks, study length 78 weeks",14500 mg/kg/day (inactive)
same,TD50,"mouse, strain Charles River CD1, males, in feed, site: liver, lesion: hepatocellular adenoma, dosed 78 weeks, study length 78 weeks",2580 mg/kg/day (inactive)
same,TD50,"mouse, strain Charles River CD1, males, in feed, site: liver, lesion: hepatocellular carcinoma, dosed 78 weeks, study length 78 weeks",11500 mg/kg/day (inactive)
same,carcinogen call,"mouse, strain Charles River CD1, males, in feed, site: lung, lesion: alveolar/bronchiolar adenoma, dosed 78 weeks, study length 78 weeks",negative (inactive)
same,TD50,"rat, strain Charles River CD (Sprague-Dawley), females, in feed, site: liver, lesion: hepatocellular adenoma, dosed 104 weeks, study length 104 weeks",16700 mg/kg/day (inactive)
same,carcinogen call,"rat, strain Charles River CD (Sprague-Dawley), females, in feed, site: liver, lesion: hepatocellular carcinoma, dosed 104 weeks, study length 104 weeks",negative (inactive)
same,TD50,"rat, strain Charles River CD (Sprague-Dawley), males, in feed, site: liver, lesion: hepatocellular adenoma, dosed 104 weeks, study length 104 weeks",3390 mg/kg/day (inactive)
same,carcinogen call,"rat, strain Charles River CD (Sprague-Dawley), males, in feed, site: liver, lesion: hepatocellular carcinoma, dosed 104 weeks, study length 104 weeks",negative (inactive)
